This is an account of results in ChEMBL document CHEMBL1201862, “PubChem BioAssay data set” (2004).

The source made the active and inactive calls.

For one assay, the target named is T1, Aminopeptidase N (Plasmodium falciparum FcB1/Columbia, UniProt O96935).
T1 sequence (O96935 whole entry): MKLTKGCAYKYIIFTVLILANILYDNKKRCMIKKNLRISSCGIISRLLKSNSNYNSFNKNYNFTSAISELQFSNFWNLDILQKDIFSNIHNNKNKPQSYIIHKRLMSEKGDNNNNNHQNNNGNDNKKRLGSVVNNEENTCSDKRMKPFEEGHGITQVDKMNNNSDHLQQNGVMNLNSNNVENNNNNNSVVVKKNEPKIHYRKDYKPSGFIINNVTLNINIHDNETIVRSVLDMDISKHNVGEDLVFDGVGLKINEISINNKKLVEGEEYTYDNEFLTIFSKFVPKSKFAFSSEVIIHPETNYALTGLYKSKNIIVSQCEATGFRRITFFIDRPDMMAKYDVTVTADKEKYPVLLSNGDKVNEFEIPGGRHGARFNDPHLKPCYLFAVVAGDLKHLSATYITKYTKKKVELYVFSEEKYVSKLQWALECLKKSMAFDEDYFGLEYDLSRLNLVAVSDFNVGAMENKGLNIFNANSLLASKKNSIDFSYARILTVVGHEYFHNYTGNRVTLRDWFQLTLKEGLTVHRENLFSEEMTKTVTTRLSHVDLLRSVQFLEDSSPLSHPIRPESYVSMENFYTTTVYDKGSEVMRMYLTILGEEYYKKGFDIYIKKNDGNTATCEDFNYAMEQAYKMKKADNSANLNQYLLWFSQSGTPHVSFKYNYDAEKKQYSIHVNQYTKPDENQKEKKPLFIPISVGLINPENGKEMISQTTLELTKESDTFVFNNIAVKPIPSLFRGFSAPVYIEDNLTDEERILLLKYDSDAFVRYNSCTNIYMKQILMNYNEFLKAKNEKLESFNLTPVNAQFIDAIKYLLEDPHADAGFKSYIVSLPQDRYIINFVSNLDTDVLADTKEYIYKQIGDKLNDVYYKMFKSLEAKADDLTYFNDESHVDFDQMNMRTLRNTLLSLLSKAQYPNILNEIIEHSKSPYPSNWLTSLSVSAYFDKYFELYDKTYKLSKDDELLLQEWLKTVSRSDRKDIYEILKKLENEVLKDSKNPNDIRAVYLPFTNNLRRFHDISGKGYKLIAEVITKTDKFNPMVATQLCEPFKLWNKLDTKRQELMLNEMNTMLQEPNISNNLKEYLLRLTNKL
The assay is described as follows: malaria alanyl aminopeptidase activity blockers – biochemical, fluorogenic H-Leu-NHMec substrate, 1536-well (AID 1445). Also on record: species or system Plasmodium falciparum 3D7, 3D7.

The target in the next assay is T2, Streptokinase A (Streptococcus pyogenes serotype M1, UniProt P10520).
T2 sequence (P10520 whole entry): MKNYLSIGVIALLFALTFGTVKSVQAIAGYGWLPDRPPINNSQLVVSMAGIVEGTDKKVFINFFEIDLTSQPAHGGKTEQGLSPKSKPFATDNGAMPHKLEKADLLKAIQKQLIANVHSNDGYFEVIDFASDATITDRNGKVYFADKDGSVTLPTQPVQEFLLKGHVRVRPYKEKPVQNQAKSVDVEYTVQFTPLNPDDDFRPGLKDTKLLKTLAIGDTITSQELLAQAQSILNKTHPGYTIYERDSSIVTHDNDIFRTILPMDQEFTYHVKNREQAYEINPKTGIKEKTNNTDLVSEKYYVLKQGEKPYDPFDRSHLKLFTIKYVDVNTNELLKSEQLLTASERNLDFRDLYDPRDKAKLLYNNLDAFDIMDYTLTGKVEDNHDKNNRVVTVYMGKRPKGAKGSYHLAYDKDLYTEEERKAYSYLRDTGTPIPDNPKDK
Description: viability-normalized secreted streptokinase activity reduction – plasminogen activation absorbance, OD405, dose response (AID 1914).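 Further: secreted streptokinase activity via plasminogen activation per viability signal from cell pellet.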 In kind it is functional, Streptococcus pyogenes M1 GAS.

Assay [1] can be described thus: CCR5-tropic HIV-1 fusion blockers – cell-based, CCR5-tropic Env, dose response (AID 2279). In kind it is functional.
A further assay has as its target Genome polyprotein (dengue virus type 2, UniProt P29990). The assay is described as follows: flavivirus cap methylation enzyme inhibition – biochemical, confirmation dose response, primary screen (AID 588689). In kind it is functional.
The test system of assay [2] is Streptococcus sp. 'group A'. Description: Streptococcus pyogenes SK(-)GAS viability under kanamycin – luminescence, BacTiterGlo, confirmation, counter-screen for streptokinase expression inhibitor project, dose response (AID 1900). It counts as functional, organism-based.
The next assay concerns Streptococcus. The assay is described as follows: GAS UMAA2166 growth inhibition – luminescence, BacTiterGlo, counter-screen for streptokinase expression inhibitor project, dose response (AID 1915).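 Further: potency for reduction of bacterial viability or growth.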 It counts as functional, organism-based. Background: The purpose of a counterscreen is to sort out artefacts and off-target activity.
The next assay has as its target T3, Protein RecA (Mycobacterium tuberculosis, UniProt P9WHJ3).
T3 sequence (P9WHJ3 whole entry): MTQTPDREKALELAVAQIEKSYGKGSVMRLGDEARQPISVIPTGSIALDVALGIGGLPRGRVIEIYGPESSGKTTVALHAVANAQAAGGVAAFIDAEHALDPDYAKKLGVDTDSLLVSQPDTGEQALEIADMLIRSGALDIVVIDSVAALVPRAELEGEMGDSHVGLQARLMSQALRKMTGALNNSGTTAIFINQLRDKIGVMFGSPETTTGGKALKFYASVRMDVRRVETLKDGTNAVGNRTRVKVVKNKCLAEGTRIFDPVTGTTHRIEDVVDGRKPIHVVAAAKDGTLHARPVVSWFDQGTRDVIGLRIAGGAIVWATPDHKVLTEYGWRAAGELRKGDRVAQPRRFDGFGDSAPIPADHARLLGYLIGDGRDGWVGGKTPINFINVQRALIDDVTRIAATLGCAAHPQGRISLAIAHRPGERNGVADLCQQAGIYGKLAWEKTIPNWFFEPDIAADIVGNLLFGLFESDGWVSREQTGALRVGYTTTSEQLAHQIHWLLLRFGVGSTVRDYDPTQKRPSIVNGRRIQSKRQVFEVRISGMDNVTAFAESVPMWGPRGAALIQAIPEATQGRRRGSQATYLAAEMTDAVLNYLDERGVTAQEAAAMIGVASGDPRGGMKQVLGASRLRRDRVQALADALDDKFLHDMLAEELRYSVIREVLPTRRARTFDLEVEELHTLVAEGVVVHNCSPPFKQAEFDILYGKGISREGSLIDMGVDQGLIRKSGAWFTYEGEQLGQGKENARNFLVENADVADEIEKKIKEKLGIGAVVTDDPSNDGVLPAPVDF
The assay is described as follows: Fluorescence Cell-Free Homogeneous Dose Retest to Identify Inhibitors of RecA-Intein Splicing Activity. [Related pubchem assays (depositor defined):AID2097, AID2223, AID489010, AID492950]. It counts as functional.

Assay [3] concerns the target T4, Replicative DNA helicase DnaB (Mycobacterium tuberculosis, UniProt P9WMR3).
T4 sequence (P9WMR3 whole entry): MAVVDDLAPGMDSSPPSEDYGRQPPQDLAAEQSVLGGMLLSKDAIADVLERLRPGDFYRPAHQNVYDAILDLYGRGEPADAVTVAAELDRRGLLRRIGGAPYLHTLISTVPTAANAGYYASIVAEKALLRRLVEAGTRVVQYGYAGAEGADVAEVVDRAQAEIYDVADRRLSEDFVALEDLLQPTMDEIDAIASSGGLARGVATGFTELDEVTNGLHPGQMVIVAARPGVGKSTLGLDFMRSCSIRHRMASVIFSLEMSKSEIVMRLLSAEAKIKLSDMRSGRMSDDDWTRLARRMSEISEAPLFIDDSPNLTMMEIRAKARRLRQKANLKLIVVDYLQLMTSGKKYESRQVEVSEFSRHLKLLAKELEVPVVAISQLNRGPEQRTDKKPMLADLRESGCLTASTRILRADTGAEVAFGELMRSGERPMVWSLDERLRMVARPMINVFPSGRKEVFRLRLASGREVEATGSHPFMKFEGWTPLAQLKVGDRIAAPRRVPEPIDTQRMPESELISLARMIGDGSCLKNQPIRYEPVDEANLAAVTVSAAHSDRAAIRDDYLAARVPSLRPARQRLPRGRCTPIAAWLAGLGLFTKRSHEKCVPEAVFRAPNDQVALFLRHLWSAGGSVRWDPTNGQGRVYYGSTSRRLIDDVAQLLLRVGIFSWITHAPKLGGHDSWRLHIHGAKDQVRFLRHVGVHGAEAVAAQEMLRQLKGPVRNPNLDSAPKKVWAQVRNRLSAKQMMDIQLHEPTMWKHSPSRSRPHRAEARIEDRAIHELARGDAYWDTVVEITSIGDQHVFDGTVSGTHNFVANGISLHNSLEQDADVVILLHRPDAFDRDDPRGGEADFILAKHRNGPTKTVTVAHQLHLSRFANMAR
Description: DnaB intein splicing inhibitors, dose response, biochemical, cell-free fluorescence (AID 449749). It counts as functional.

Assay [4] in a line: Luminescence-based counterscreen assay for KLF5 inhibitors: dose response cell-based high throughput screening assay to identify cytotoxic compounds using the IEC-6 intestinal epithelial cell line. [Related pubchem assays: 1700 (Primary screen.), 1834 (Confirmation screen.), 1858 (Summary AID.), 1905 (Counterscreen.)]. It counts as functional.
Assay [5] has as its target T5, Heat shock factor protein 1 (Mus musculus, UniProt P38532).
T5 sequence (P38532 whole entry): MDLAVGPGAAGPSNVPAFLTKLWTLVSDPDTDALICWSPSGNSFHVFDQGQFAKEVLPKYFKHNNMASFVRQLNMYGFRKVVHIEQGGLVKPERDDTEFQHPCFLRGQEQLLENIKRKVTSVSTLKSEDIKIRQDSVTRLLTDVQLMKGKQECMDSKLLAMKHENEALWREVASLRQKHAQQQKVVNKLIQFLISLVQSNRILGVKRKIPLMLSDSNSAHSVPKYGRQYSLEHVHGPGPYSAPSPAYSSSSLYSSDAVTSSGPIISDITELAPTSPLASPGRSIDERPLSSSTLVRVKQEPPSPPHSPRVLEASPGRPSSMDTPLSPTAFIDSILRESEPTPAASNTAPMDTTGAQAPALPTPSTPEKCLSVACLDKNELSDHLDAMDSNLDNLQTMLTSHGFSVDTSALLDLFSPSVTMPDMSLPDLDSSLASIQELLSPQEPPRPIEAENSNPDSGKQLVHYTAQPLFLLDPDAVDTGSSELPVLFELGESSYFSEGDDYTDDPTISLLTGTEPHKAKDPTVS
Description: decrease of HSF1-responsive luciferase luminescence – cell-based, NIH3T3, dose retest, confirmation (AID 2382).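 Further: NIH3T3 fibroblasts with HSF1-driven luciferase reporter stressed by proteasome inhibitor MG132; luminescence from HSF1-driven luciferase expression after 8 hours of MG132 stress.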 It counts as functional.

Assay [6] is described as follows: Luminescence Cell-Based Dose Confirmation HTS to Identify Inhibitors of Platelet Dense Granule Release. [Related pubchem assays: 1663 (Primary HTS), 1678 (Summary of Project)]. In kind it is functional.
Assay [7] addresses Luciferin 4-monooxygenase (Photinus pyralis, UniProt P08659). Description: inhibition of purified Photinus pyralis luciferase – biochemical, luminescence, dose response (AID 1891).
Assay [8] can be described thus: HEK-293T viability loss after treatment – luminescence, T-cell screen hits, cytotoxicity control for TCR NF-kB inhibitor project, dose response (AID 489026).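 Further: cells exposed to compound about 14 hours before the viability readout.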 In kind it is functional, cell-based.
In another assay the target is NS3 (Hepatitis C virus, UniProt A3EZJ3). The assay is described as follows: PubChem AID 2173. Also on record: species or system Hepacivirus hominis.
The target of the next assay is T6, Bcl-2-like protein 10 (Homo sapiens, UniProt Q9HD36).
T6 sequence (Q9HD36 whole entry): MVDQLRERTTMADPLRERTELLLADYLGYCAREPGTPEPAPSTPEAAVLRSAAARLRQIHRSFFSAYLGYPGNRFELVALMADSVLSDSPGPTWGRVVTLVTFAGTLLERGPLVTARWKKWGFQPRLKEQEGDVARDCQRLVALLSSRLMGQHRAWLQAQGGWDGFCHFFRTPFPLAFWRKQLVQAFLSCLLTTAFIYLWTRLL
Description: Concentration-response of Bcl-B inhibitors by biochemical FP with TR3 (AID 1243). It counts as functional.

Genome polyprotein, sequence (P29990 2492-3391 limits assumed): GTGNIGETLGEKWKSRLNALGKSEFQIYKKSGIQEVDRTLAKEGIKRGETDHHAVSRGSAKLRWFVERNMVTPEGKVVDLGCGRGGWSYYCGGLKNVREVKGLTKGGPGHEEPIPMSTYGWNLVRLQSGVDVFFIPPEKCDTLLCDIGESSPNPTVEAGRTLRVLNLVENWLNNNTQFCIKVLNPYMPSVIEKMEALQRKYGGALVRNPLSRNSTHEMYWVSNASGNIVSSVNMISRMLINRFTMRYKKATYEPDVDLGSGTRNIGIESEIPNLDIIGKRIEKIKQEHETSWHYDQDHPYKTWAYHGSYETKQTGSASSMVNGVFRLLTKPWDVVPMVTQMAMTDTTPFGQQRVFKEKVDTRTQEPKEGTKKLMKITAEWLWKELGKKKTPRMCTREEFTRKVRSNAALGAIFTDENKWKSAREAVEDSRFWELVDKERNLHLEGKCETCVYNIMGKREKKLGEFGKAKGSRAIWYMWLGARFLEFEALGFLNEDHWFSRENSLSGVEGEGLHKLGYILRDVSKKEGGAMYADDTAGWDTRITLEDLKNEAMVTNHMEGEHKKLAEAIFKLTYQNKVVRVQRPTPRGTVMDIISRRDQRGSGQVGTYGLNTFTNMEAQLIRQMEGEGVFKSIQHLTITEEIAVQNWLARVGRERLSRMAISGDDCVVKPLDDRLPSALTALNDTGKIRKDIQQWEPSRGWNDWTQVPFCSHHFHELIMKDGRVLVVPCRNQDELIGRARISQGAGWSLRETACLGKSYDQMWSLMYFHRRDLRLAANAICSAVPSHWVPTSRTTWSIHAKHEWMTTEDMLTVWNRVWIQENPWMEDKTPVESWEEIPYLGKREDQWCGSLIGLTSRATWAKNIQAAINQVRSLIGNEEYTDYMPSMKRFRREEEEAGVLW
Luciferin 4-monooxygenase, sequence (P08659 whole entry): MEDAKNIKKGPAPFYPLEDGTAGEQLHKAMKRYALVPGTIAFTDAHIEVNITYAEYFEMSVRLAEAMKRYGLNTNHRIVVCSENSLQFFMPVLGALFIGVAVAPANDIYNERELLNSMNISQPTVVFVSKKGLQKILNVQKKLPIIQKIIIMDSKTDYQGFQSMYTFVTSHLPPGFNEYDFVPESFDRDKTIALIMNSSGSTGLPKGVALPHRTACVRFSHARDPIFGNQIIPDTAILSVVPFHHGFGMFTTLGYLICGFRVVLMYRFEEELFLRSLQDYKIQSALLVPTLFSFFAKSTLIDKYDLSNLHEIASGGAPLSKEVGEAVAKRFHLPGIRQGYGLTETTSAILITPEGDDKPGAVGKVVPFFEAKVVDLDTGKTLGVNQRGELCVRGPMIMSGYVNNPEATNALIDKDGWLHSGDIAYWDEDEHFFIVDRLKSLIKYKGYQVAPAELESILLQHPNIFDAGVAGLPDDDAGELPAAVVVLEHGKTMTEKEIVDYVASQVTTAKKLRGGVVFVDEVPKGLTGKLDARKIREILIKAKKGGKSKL
NS3, sequence (A3EZJ3 whole entry): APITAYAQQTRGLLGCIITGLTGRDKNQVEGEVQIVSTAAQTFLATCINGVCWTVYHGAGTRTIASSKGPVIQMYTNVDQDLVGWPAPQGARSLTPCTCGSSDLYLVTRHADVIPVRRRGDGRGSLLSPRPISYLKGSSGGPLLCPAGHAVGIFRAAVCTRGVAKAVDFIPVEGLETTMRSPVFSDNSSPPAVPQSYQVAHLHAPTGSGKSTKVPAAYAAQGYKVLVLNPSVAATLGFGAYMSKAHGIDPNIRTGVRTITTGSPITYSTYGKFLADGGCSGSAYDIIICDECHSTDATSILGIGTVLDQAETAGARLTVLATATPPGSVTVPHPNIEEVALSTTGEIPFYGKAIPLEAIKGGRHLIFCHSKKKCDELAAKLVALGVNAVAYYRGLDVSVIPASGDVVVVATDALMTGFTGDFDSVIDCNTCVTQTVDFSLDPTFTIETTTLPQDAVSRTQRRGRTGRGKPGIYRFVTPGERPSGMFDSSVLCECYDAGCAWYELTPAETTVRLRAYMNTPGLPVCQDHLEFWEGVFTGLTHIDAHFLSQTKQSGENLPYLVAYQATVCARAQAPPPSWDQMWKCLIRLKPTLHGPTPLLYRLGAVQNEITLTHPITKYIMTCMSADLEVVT

In general, IC50 refers to the midpoint of a concentration-inhibition curve. Usually EC50 stands for the concentration needed to bring the measured effect to its halfway point. A word on the AC50: it is the midpoint of the concentration-response curve, whichever way the signal moves. In the case of `O=C(O)c1ccccc1-c1ccccc1C(=O)Nc1ccc(-c2nc3cc(Cl)ccc3o2)cc1`, the figures for the IC50 (at Aminopeptidase N; in [1]; on Genome polyprotein) were 32.6 µM (active), > 50 µM (active) and 54 µM (active), respectively. For the same molecule, the EC50 is > 150 µM (not active) on Streptokinase A, 7.55 µM (active) in assay [2], 14 µM (active) in the assay with Streptococcus and 11.7 µM (active) on Protein RecA. Moreover, the AC50 in assay [3] is 3.18 µM (active).
Turning to `O=C(Nc1ccc(N2CCCCC2)cc1)c1ccccn1`, the results for the half-maximal inhibitory concentration (IC50) in [4] and in assay [8] were 13.3 µM (not active) and > 80 µM (inactive), respectively. The results for the EC50 in assay [5], in assay [6] and in assay [7] were < 0.16 µM (active), 1.49 µM (active) and 1.06 µM (active), respectively.
With `NS(=O)(=O)c1ccc2nc(NC(=O)c3ccc4ncsc4c3)sc2c1`, the half-maximal inhibitory concentration (IC50) against NS3 is listed as 32 µM (not active).
Take `CCOc1ccc(/C=C(/NC(=O)c2ccc(C)cc2)C(=O)NCCO)cc1`: the concentration for a half-maximal effect (EC50) on Bcl-2-like protein 10 is 13.2 µM (active).
